Data as given in US5198336A, “Bioassay for chemicals which generate prooxidant states” (Wisconsin Alumni Research Foundation, priority 1989, dated 1993).

Test system: submitochondrial electron transport particles (ETP) having competent electron transport enzyme complex I
Assay: facilitated electron withdrawal bioassay with SOD-depleted submitochondrial electron transport particles (adrenochrome formation, absorbance at 480 nm)
Assay type: biochemical, bovine (beef heart)
Conditions: for lowest observable effect concentration (LOEC): concentration giving a response three standard deviations above mean control, HEPES buffer pH 7.2, 1.5 mM epinephrine, 0.5 mg ETP, 125 uM NADH, 10 minute incubation; for lowest observable effect concentration (LOEC) / relative potency to induce a prooxidant state (FIG. 4): 0.2 ug per ml antimycin A; for relative potency to induce a prooxidant state (FIG. 4): ranking among the five agents tested, 0 to 10 ug per ml toxicant
Protocol: The practice of the present invention began with the creation of submitochondrial electron transport particles (ETP) isolated from beef hearts. These are also referred to as submitochondrial particles. The mitochondria were isolated from bovine heart muscle by the method of Blair, supra. The superoxide dismutase-depleted ETP particles were prepared by sonicating the thawed mitochondria for two minutes in a medium containing 0.25M sucrose and 2 mM EDTA, pH 7.5, at a protein concentration of 25 mg per ml. The result was diluted with an equal volume of 0.25M sucrose and adjusted to a pH of 7.5 after which it was centrifuged for 40 minutes at 105,000×g. The resulting ETP particles were washed in ten volumes of 0.25M sucrose and sedimented by centrifugation. After treatment the ETP particles were stored frozen in buffered 0.25M sucrose at a protein concentration of 20 mg per ml.
The test medium contained 50 mM HEPES buffer, 1.5 mM epinephrine and 0.4 uM antimycin. The medium was adjusted to a pH of 7.2 with 5M potassium hydroxide and dispensed in 1.8 ml aliquots into 1-CM path length glass cuvettes. Either aqueous diluent or the test sample was added in a volume of 20-50 ul so that the final concentration ranged between 0 and 100 ug per ml. Following the addition of 0.5 mg of the SOD-depleted ETP particles suspended in a 0.1 ml 50 mM HEPES buffer, the cuvettes were covered with parafilm and inverted three times to mix the contents. First a base line absorbance reading was taken by the spectrophotometer set for 480 nm.
After the base line reading was taken, the reaction was started by adding 50 ul of 5 mM NADH. The final absorbance readings were then taken after a 10 minute incubation at room temperature. The final absorbance readings were used to calculate a lowest observable effect concentration (LOEC) for each of the chemicals tested. […] It is intended that the LOEC value be analogous to the limited detection value used for environmental samples subject to conventional analysis.
All experiments summarized in this table and in FIG. 4 were conducted with 2 ml HEPES buffer, a pH of 7.2, 1.5 mM epinephrine, 0.2 ug per ml antimycin A, 0.5 mg ETP, 125 uM NADH and 0 to 10 ug per ml of the test toxicant.

| Compound | lowest observable effect concentration (LOEC) | relative potency to induce a prooxidant state (FIG. 4) | effect of antimycin A or rotenone on the response to paraquat (FIG. 3) (with vs without 0.2 ug per ml antimycin A or 0.2 ug per ml rotenone, absorbance at 480 nm) |
| --- | --- | --- | --- |
| c1cc[n+]2c(c1)-c1cccc[n+]1CC2 [Diquat] | 1600 µg/L |  |  |
| O=S(=O)(O)c1ccccc1N=Nc1c(S(=O)(=O)O)cc2cc(S(=O)(=O)O)c(N=Nc3ccccc3S(=O)(=O)O)c(O)c2c1O [Sulfonazo III] | 320 µg/L | strongest inducer of the prooxidant states |  |
| O=[N+]([O-])c1cc[n+]([O-])c2ccccc12 [4-Nitroquinoline-N-oxide] | 1600 µg/L |  |  |
| C[n+]1ccc(-c2cc[n+](C)cc2)cc1 [Paraquat] | 3500 µg/L |  | increases the rate at which paraquat can draw electrons from the electron transport cascade |
| COc1cccc2c1C(=O)c1c(O)c3c(c(O)c1C2=O)C[C@@](O)(C(=O)CO)C[C@@H]3O[C@H]1C[C@H](N)[C@H](O)[C@H](C)O1 [Adriamycin] | 6300 µg/L | weakest |  |
